2 molecules from patent US7091354B2, “Processes for the preparation of peripheral opioid antagonist compounds and intermediates thereto” (Adolor Corporation, priority 2002, dated 2006) can be followed below.

By melting point is commonly meant the temperature of the solid-liquid transition. Take `C=C(C(=O)OC)[C@@H](O)c1ccccc1` (single isomer, unassigned): the melting point is 48 °C.

`C=C(C(=O)OC)C(O)c1ccccc1` (single isomer, unassigned): the melting point came out at 51 °C.
